Here are results for 32 molecules from patent publication US20110306597A1, “Nicotinamide Derivatives” (priority 2008, published 2011).

The term IC50 denotes the concentration that gives 50% inhibition.

The test has as its target human recombinant H-PGDS (Homo sapiens, UniProt O60760). The test is described as follows: Fluorescence Intensity h-PGDS TBA Enzyme Assay. It counts as biochemical. As to conditions: 1:175,000 human recombinant H-PGDS, highest inhibitor concentration typically 1 μM. The gist of the method:
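Recombinant human H-PGDS preincubated 10 min at room temperature with inhibitor in 100 mM Tris pH 8.0, 100 μM MgCl2, 2.5 mM glutathione, 0.5% DMSO; 5.0 μM PGH2 added, stopped after 42 s with FeCl2/citric acid. Remaining PGH2 measured as MDA–TBA fluorescence (ex 530/em 565 nm); IC50 by 4-parameter fit, 11 concentrations.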

Sequence of human recombinant H-PGDS (O60760 whole entry): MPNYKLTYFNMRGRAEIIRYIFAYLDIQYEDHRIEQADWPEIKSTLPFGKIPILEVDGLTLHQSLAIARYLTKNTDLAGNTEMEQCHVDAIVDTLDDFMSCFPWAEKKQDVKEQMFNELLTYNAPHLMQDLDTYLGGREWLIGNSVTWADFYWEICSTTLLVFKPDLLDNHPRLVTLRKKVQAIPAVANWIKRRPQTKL

For the molecule `Cc1ccccc1CNC(=O)c1ccc(-c2cccc(F)c2)nc1` [Example 153, 6-(3-Fluorophenyl)-N-(2-methylbenzyl)nicotinamide], the IC50 was found to be 2.99 nM.

Consider `O=C(NCc1cc(F)cc2c1OCOC2)c1ccc(-c2ccccc2)nc1` [Example 357, N-[(6-Fluoro-4H-1,3-benzodioxin-8-yl)methyl]-6-phenylnicotinamide], for which the IC50 turned out to be 1.73 nM.

On to `O=C(NCCN1CCOCC1)c1ccc(-c2ccccc2)nc1` [Example 389, N-(2-Morpholin-4-ylethyl)-6-phenylnicotinamide], for which the IC50 is 23.9 nM.

As to `COC(=O)c1ccc(CNC(=O)c2ccc(-c3cccc(OC)c3)nc2)cc1` [Example 344, Methyl 4-[({[6-(3-methoxyphenyl)pyridin-3-yl]carbonyl}amino)methyl] benzoate], the half-inhibitory concentration (IC50) was found to be 159 nM.

For `COc1cccc(-c2ccc(C(=O)NCc3ccc(S(C)(=O)=O)cc3)cn2)c1` [Example 316, 6-(3-Methoxyphenyl)-N-[4-(methylsulfonyl)benzyl] nicotinamide], the IC50 came to 382 nM.

With `COc1ccc(NC(=O)c2ccc(-c3ccccc3)nc2)cc1OC` [Example 515, N-(3,4-Dimethoxyphenyl)-6-phenylnicotinamide], the IC50 turned out to be 0.95 nM.

Take `O=C(NCc1ccc(Cl)c(Cl)c1)c1ccc(-c2ccccc2)nc1` [Example 522, N-(3,4-Dichlorobenzyl)-6-phenylnicotinamide]: the IC50 is 25 nM.

Take `CCC1CCN(CCNC(=O)c2ccc(-c3cccc(F)c3)nc2)CC1` [Example 188, N-[2-(4-Ethylpiperidin-1-yl)ethyl]-6-(3-fluorophenyl)nicotinamide]: the IC50 came out at 16.3 nM.

Take `CCOC(=O)CC(NC(=O)c1ccc(-c2cccc(F)c2)nc1)c1ccc(OC)cc1` (centres unmarked) [Example 162, Ethyl 3-({[6-(3-fluorophenyl)pyridin-3-yl]carbonyl}amino)-3-(4-methoxyphenyl)propanoate]: the IC50 was 19.6 nM.

Regarding `CCOC(=O)CCCNC(=O)c1ccc(-c2cccc(OC)c2)nc1` [Example 301, Ethyl 4-({[6-(3-methoxyphenyl)pyridin-3-yl]carbonyl}amino)butanoate], the IC50 was found to be 49.9 nM.

Consider `COC(C)(C)CNC(=O)c1ccc(-c2cccc(C)c2)nc1` [Example 232, N-(2-Methoxy-2-methylpropyl)-6-(3-methylphenyl)nicotinamide], for which the IC50 was found to be 137 nM.

`O=C(NCC1CN(Cc2ccccn2)C(=O)CO1)c1ccc(-c2cccc(F)c2)nc1` (centres unmarked) [Example 67, 6-(3-Fluorophenyl)-N-{[5-oxo-4-(pyridin-2-ylmethyl)morpholin-2-yl]methyl}nicotinamide]: the IC50 was determined as 31.9 nM.

Regarding `CCCCN1CC(CNC(=O)c2ccc(-c3cccc(F)c3)nc2)OCC1=O` (centres unmarked) [Example 70, N-[(4-Butyl-5-oxomorpholin-2-yl)methyl]-6-(3-fluorophenyl)nicotinamide], the IC50 is 34.2 nM.

Regarding `CN1CCC2(CC1)COC(CNC(=O)c1ccc(-c3cccc(F)c3)nc1)C2` (centres unmarked) [Example 52, 6-(3-Fluorophenyl)-N-[(8-methyl-2-oxa-8-azaspiro[4.5]dec-3-yl)methyl]nicotinamide], the IC50 amounted to 77.6 nM.

As for `O=C(NCCCN1CCCC1=O)c1ccc(-c2cccc(F)c2)nc1` [Example 156, 6-(3-Fluorophenyl)-N-[3-(2-oxopyrrolidin-1-yl)propyl]nicotinamide], the IC50 is 15.7 nM.

With `CCOC(=O)CC(NC(=O)c1ccc(-c2ccccc2)nc1)c1ccccc1Cl` (centres unmarked) [Example 384, ethyl 3-(2-Chlorophenyl)-3-{[(6-phenylpyridin-3-yl)carbonyl]amino}propanoate], the IC50 amounted to 39.6 nM.

For `CCOC(=O)C(CNC(=O)c1ccc(-c2cccc(OC)c2)nc1)c1c(F)cccc1F` (centres unmarked) [Example 331, Ethyl 2-(2,6-difluorophenyl)-3-({[6-(3-methoxyphenyl)pyridin-3-yl]carbonyl}amino) propanoate], the IC50 was 234 nM.

Turning to `O=C(NCCCNc1ccccn1)c1ccc(-c2cccc(F)c2)nc1` [Example 197, 6-(3-Fluorophenyl)-N-[3-(pyridin-2-ylamino)propyl]nicotinamide], the IC50 was 34 nM.

Turning to `O=C(NCc1nnc(-c2cccnc2)[nH]1)c1ccc(-c2cccc(F)c2)nc1` [Example 524, 6-(3-Fluorophenyl)-N-[(5-pyridin-3-yl-4H-1,2,4-triazol-3-yl)methyl]nicotinamide], the IC50 was determined as 9.36 nM.

Take `O=C(NCc1cc(F)cc2c1OCOC2)c1ccc(-c2ccc(F)cc2)nc1` [Example 472, N-[(6-Fluoro-4H-1,3-benzodioxin-8-yl)methyl]-6-(4-fluorophenyl)nicotinamide]: the IC50 turned out to be 256 nM.

For the molecule `CCn1cc(-c2nnc(CCNC(=O)c3ccc(-c4cccc(F)c4)nc3)o2)cn1` [Example 45, N-{2-[5-(1-Ethyl-1H-pyrazol-4-yl)-1,3,4-oxadiazol-2-yl]ethyl}-6-(3-fluorophenyl)nicotinamide], the IC50 came to 30.7 nM.

Regarding `Cc1cccc(-c2ccc(C(=O)NCC3CCCCO3)cn2)c1` (centres unmarked) [Example 239, 6-(3-Methylphenyl)-N-(tetrahydro-2H-pyran-2-ylmethyl)nicotinamide], the IC50 worked out at 67.6 nM.

`O=C(NCc1nnc(Cc2ccccc2)o1)c1ccc(-c2cccc(F)c2)nc1` [Example 57, N-[(5-Benzyl-1,3,4-oxadiazol-2-yl)methyl]-6-(3-fluorophenyl)nicotinamide]: the IC50 turned out to be 32.8 nM.

Regarding `CC(C)NC(=O)c1ccc(-c2cccc(F)c2)nc1` [Example 179, 6-(3-Fluorophenyl)-N-isopropylnicotinamide], the 50% inhibitory concentration (IC50) came out at 20.5 nM.

For `CSc1ccc(CNC(=O)c2ccc(-c3cccc(C)c3)nc2)cc1` [Example 453, 6-(3-Methylphenyl)-N-[4-(methylthio)benzyl]nicotinamide], the IC50 worked out at 102 nM.

For `O=C(NCCN1CCCC1)c1ccc(-c2ccccc2)nc1` [Example 358, 6-Phenyl-N-(2-pyrrolidin-1-ylethyl)nicotinamide], the IC50 was 199 nM.

Take `COc1ccc(CNC(=O)c2ccc(-c3ccccc3)nc2)cc1` [Example 519, N-(4-Methoxybenzyl)-6-phenylnicotinamide]: the IC50 is 8.3 nM.

As for `NS(=O)(=O)c1ccc(CNC(=O)c2ccc(-c3cccc(F)c3)nc2)cc1` [Example 413, N-[4-(Aminosulfonyl)benzyl]-6-(3-fluorophenyl)nicotinamide], the IC50 worked out at 92.9 nM.

Take `O=C(NCc1noc(C(=O)N2CC[C@H](O)C2)n1)c1ccc(-c2cccc(F)c2)nc1` [Example 199, 6-(3-Fluorophenyl)-N-[(5-{[(3S)-3-hydroxypyrrolidin-1-yl]carbonyl}-1,2,4-oxadiazol-3-yl)methyl]nicotinamide]: the IC50 is 622 nM.

As for `CN(C)C(=O)CNC(=O)c1ccc(-c2ccc(F)cc2)nc1` [Example 325, N-[2-(Dimethylamino)-2-oxoethyl]-6-(4-fluorophenyl)nicotinamide], the IC50 was no less than 1000 nM.

Take `O=C(NC1CCN(Cc2ccc(Cl)c(Cl)c2)C1=O)c1ccc(-c2cccc(F)c2)nc1` (centres unmarked) [Example 160, N-[1-(3,4-Dichlorobenzyl)-2-oxopyrrolidin-3-yl]-6-(3-fluorophenyl)nicotinamide]: the IC50 came out at 40.8 nM.

As to `Cc1nc(CCNC(=O)c2ccc(-c3cccc(F)c3)nc2)cs1` [Example 2, 6-(3-Fluorophenyl)-N-[2-(2-methyl-1,3-thiazol-4-yl)ethyl]nicotinamide], the IC50 amounted to 3.53 nM.
